Data reported in patent US20240139147A1, “METHOD FOR IMPROVING BIOAVAILABILITY OF NAD+ DERIVATIVES” (HOBOOMLIFE BIO-TECHNOLOGY (SHENZHEN) CO., LTD., priority 2022, published 2024).

How the values were obtained:
Type in all cases: in vivo
Conditions in all cases: SD rats, intragastric; for NAD+ level in blood: 100 mg/kg NMN and/or 10 mg/kg quercetin
[1] = test system: NAD+; assay: Increasing the level of NAD+ by controlled-release NMN microspheres 2, 5, 6, blood NAD+ by HPLC (Example 9)
Protocol: (§1) 28 SD rats weighing about 200 g were purchased, and an experiment was carried out after one week of adaptive feeding. The 28 rats were divided into 7 groups, 4 rats per group (half male and half female). The rats in group 1 were not treated, the rats in group 2 were administered intragastrically with 100 mg/kg of NMN, the rats in group 3 were administered intragastrically with 10 mg/kg of quercetin, the rats in group 4 were administered intragastrically with 100 mg/kg of NMN and 10 mg/kg of quercetin at the same time, the rats in group 5 were administered intragastrically with the controlled-release NMN microspheres 2 containing 100 mg/kg of NMN and 10 mg/kg of quercetin, the rats in group 6 were administered intragastrically with the controlled-release NMN microspheres 5 containing 100 mg/kg of NMN and 10 mg/kg of quercetin, and the rats in group 7 were administered intragastrically with the controlled-release NMN microspheres 6 containing 100 mg/kg of NMN and 10 mg/kg of quercetin.
Blood was collected from the rat in each groups via the tail vein at time points of 2 h, 2.5 h, 3 h, 3.5 h, 4 h, 4.5 h, 5 h, 5.5 h, and 6 h, respectively, after intragastric administration of corresponding microspheres, and 0.1 mL of blood was collected each time by each rat. After the vein blood collected from the rat in each groups at each time point was treated, the NAD+ level in the blood sample was tested by high performance liquid chromatography (HPLC). The test results of 4 rats in each group were averaged. […] There are time differences between a peak of the releasing of quercetin and a peak of the releasing of NMN in the controlled-release NMN microsphere 2, the controlled-release NMN microsphere 5, and the controlled-release NMN microsphere 6 that are prepared based on difference mass ratios of quercetin (the CD38 inhibitor) to NMN, and the time differences between a peak of the releasing of quercetin and a peak of the releasing of NMN in the three microspheres are consistent and are all about 0.5-1.5 h.

[2] = test system: NAD+; assay: Increasing the level of NAD+ by controlled-release NMN microspheres 2, 9, 10, blood NAD+ by HPLC (Example 15)
Protocol: as §1, with “10 mg/kg quercetin at” for “10 mg/kg of quercetin at”, “NMN microspheres 9 containing 100” for “NMN microspheres 5 containing 100”, “NMN microspheres 10 containing 100” for “NMN microspheres 6 containing 100”
Blood was collected from each rat in the groups via the tail vein at time points of 2 h, 2.5 h, 3 h, 3.5 h, 4 h, 4.5 h, 5 h, 5.5 h, and 6 h, respectively, after intragastric administration of corresponding microspheres, and 0.1 mL of blood was collected each time by each rat. After the vein blood collected from each rat in the groups at each time point was treated, the NAD+ level in the blood sample was tested by high performance liquid chromatography (HPLC). The test results of 4 rats in each group were averaged. […] There are time differences between a peak of the releasing of quercetin and a peak of the releasing of NMN in the controlled-release NMN microsphere 2, the controlled-release NMN microsphere 9, and the controlled-release NMN microsphere 10 that are prepared based on different mass ratios of quercetin (the CD38 inhibitor) to the excipient and different mass ratios of NMN to the excipient, and the time differences between a peak of the releasing of quercetin and a peak of the releasing of NMN in the three microspheres are consistent and are all about 0.5-1.5 h.

[3] = test system: NAD+; assay: Increasing the level of NAD+ by controlled-release NMN microspheres 1-3, blood NAD+ by HPLC (Example 3)
Protocol: as §1, with “the controlled-release microspheres 1” for “the controlled-release NMN microspheres 2”, “controlled-release microspheres 1 containing 100” for “NMN microspheres 2 containing 100”, “NMN microspheres 2 containing 100” for “NMN microspheres 5 containing 100”, “NMN microspheres 3 containing 100” for “NMN microspheres 6 containing 100”
Blood was collected from the rat in each groups via the tail vein at time points of 2 h, 2.5 h, 3 h, 3.5 h, 4 h, 4.5 h, 5 h, 5.5 h, and 6 h, respectively, after intragastric administration of corresponding microspheres, and 0.1 mL of blood was collected each time by each rat. After the vein blood collected from the rat in each groups at each time point was treated, the NAD+ level in the blood sample was tested by high performance liquid chromatography (HPLC). The test results of 4 rats in each group were averaged. […] Different parameters are set in the preparation processes of the controlled-release NMN microsphere 1, the controlled-release NMN microsphere 2, and the controlled-release NMN microsphere 3, so the time intervals between release peaks of quercetin and release peaks of NMN in the microspheres are different. A time difference between a peak of the releasing of quercetin and a peak of the releasing of NMN in the controlled-release NMN microsphere 1 is 1 h-2 h, a time difference between a peak of the releasing of quercetin and a peak of the releasing of NMN in the controlled-release NMN microsphere 2 is 0.5 h-1.5 h, and a time difference between a peak of the releasing of quercetin and a peak of the releasing of NMN in the controlled-release NMN microsphere 3 is 0 h-1 h.

SMILES	level of NAD+ in the rat compared with the blank group (in words) [1]	NAD+ level in blood ([1]; 2 h) [µM]	NAD+ level in blood ([1]; 2.5 h) [µM]	NAD+ level in blood ([1]; 3 h) [µM]	NAD+ level in blood ([1]; 3.5 h) [µM]	NAD+ level in blood ([1]; 4 h) [µM]	NAD+ level in blood ([1]; 4.5 h) [µM]	NAD+ level in blood ([1]; 5 h) [µM]	NAD+ level in blood ([1]; 5.5 h) [µM]	NAD+ level in blood ([1]; 6 h) [µM]	level of NAD+ in the rat compared with the blank group (in words) [2]	NAD+ level in blood ([2]; 2 h) [µM]	NAD+ level in blood ([2]; 2.5 h) [µM]	NAD+ level in blood ([2]; 3 h) [µM]	NAD+ level in blood ([2]; 3.5 h) [µM]	NAD+ level in blood ([2]; 4 h) [µM]	NAD+ level in blood ([2]; 4.5 h) [µM]	NAD+ level in blood ([2]; 5 h) [µM]	NAD+ level in blood ([2]; 5.5 h) [µM]	NAD+ level in blood ([2]; 6 h) [µM]	further results
NC(=O)c1ccc[n+]([C@@H]2O[C@H](COP(=O)([O-])O)[C@@H](O)[C@H]2O)c1 [NMN, nicotinamide mononucleotide]	can increase the level of NAD+ in the rat	133	197	168	159	143	148	139	144	140	can increase the level of NAD+ in the rat	134	193	153	168	142	137	131	138	134	level of NAD+ in the rat compared with the blank group (in words) [3]: can increase the level of NAD+ in the rat; NAD+ level in blood ([3]; 2 h): 139 µM; NAD+ level in blood ([3]; 2.5 h): 207 µM; NAD+ level in blood ([3]; 3 h): 173 µM; NAD+ level in blood ([3]; 3.5 h): 159 µM; NAD+ level in blood ([3]; 4 h): 150 µM; NAD+ level in blood ([3]; 4.5 h): 145 µM; NAD+ level in blood ([3]; 5 h): 148 µM; NAD+ level in blood ([3]; 5.5 h): 152 µM; NAD+ level in blood ([3]; 6 h): 147 µM
O=c1c(O)c(-c2ccc(O)c(O)c2)oc2cc(O)cc(O)c12 [Quercetin, quercetin]	can increase the level of NAD+ in the rat	127	146	180	164	151	144	147	130	137	can increase the level of NAD+ in the rat	121	140	176	158	146	138	141	124	132	level of NAD+ in the rat compared with the blank group (in words) [3]: can increase the level of NAD+ in the rat; NAD+ level in blood ([3]; 2 h): 145 µM; NAD+ level in blood ([3]; 2.5 h): 152 µM; NAD+ level in blood ([3]; 3 h): 178 µM; NAD+ level in blood ([3]; 3.5 h): 160 µM; NAD+ level in blood ([3]; 4 h): 147 µM; NAD+ level in blood ([3]; 4.5 h): 150 µM; NAD+ level in blood ([3]; 5 h): 151 µM; NAD+ level in blood ([3]; 5.5 h): 144 µM; NAD+ level in blood ([3]; 6 h): 149 µM
